Experiments:
[1] = Low temperature performance, bending beam rheometer (BBR) at −16° C.; type: physicochemical; details: bitumen 20/30 + 5% compound
Description: Different bitumen samples were rejuvenated as in Example 1, and the BBR values S (flexural creep stiffness) and m […] were evaluated at −16° C. The results were compared to the not rejuvenated bitumen sample as well as to the bitumen rejuvenated with the benchmark RheoFalt® HP-AM (Comp. 1.3).

[2] = Loss tangent from DSR frequency sweep at 60° C.; type: physicochemical
From the text: In addition, it could be shown that additives according to the present invention perform most of the times better than the common benchmarks according to the standard testing techniques for the low, mid and high temperature range. What cannot be extracted from these measurements however is an indication of the working mechanism.

[3] = type: physicochemical; details: Olexobit 45 + 5% compound

S-value [MPa] (flexural creep stiffness) [1]: 105 MPa
m-value [1]: 0.43
tan δ ([2]; aged bitumen 50/70 BP + 5% compound, lowest frequency): 75
tan δ ([2]; aged bitumen 50/70 PCK Schwedt + 5% compound, lowest frequency): 105
tan δ ([2]; bitumen 20/30 + 5% compound, lowest frequency (0.01 rad/s)): 55
tan δ ([2]; bitumen extracted from RAP + 5% compound, lowest frequency): 45
η(135° C.) [mPas] [3]: 650 mPas
Substance: Polypropylenglycol bis glycidylether

Source: patent US20230220206A1, “REJUVENATING AGENTS FOR ASPHALT RECYCLING” (BASF SE, priority 2020, published 2023)
